# Experimental data: US8822503B2, “2-pyridone compounds” (Taisho Pharmaceutical Co., Ltd, priority 2009, dated 2014)
# Target: T1, human liver GK (Homo sapiens, UniProt P35557)
# T1 construct: GST (glutathione S-transferase) (N); made in house; host or cells: E. coli
# T1 sequence (P35557 1-466 isoform P35557-2): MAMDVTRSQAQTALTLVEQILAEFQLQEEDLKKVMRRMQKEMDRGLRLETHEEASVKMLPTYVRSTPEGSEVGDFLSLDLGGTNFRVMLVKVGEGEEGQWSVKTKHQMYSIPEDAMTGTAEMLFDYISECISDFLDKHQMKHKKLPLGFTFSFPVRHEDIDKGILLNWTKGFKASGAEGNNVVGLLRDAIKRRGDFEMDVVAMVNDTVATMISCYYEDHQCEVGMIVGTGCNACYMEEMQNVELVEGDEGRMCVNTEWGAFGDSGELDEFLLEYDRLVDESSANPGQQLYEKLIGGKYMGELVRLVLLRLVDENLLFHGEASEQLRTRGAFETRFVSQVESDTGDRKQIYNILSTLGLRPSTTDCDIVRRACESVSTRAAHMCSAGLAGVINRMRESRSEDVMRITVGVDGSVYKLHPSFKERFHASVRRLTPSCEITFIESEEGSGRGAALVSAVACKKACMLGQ
# Assay: GK activation test
# Assay type: biochemical
# Details: test compound concentration needed to activate 50% of maximum activation ability; 4 mM 14C-labeled glucose, 2 mM ATP, room temperature, 20 minutes
# Method: The GK activation test for the test compounds was performed by the method of Irwin A. Rose et al. (J. Biol. Chem. 1964 January; 239:12-7) with partial modifications.
# The enzyme source used in this assay, human liver GK, was expressed in E. coli as a fusion protein with GST (glutathione S-transferase) added to the amino terminus and was purified using Glutathione Sepharose 4B (Amersham Biosciences).
# The test was carried out using flat-bottom 96-well plates (Sumitomo Bakelite Co., Ltd.). A solution of the test compound in dimethyl sulfoxide (DMSO) and DMSO as a control were added to each well of the plates at a final DMSO concentration of 1%. 25 mM Hepes-KOH (pH=7.1), 25 mM KCl, 2 mM MgCl2, 2 mM ATP, 4 mM ^14C-labeled glucose (Muromachi Yakuhin) and 1 mM DTT (dithiothreitol) were further added at the indicated final concentrations, respectively. Finally, human liver GK was added at 0.24 microgram per well and the reaction was started. The reaction was carried out at room temperature.
# After 20 minutes, AG1-X4 resin (BioRad) suspended in 25 mM Hepes-KOH (pH=7.1) was added and the reaction product, labeled glucose 6-phosphate, was allowed to bind thereto. The whole volume was transferred to MultiScreen plates (Millipore) and the resin was washed with water. Thereafter, the labeled glucose 6-phosphate binding to the resin was eluted with a 0.5 M NaCl solution. The labeling activity of the eluted labeled glucose 6-phosphate was measured as an index of GK activity.
# The GK activity maximally activated by the test compound was described as maximum activation ability, and the test compound concentration needed to activate 50% of that ability was described as EC50.
row,SMILES,EC50
1,"CC(C)(C)c1ccc(C(C[C@H]2CCC(=O)N2)c2ccc(C(F)(F)F)c(=O)[nH]2)cc1 (single isomer, unassigned) [Example 4-314]",0.5 to 3 µM
2,"CC(C)(C)c1ccc(C(C[C@H]2CCC(=O)N2)c2ccc(C(F)(F)F)c(=O)[nH]2)cc1 (single isomer, unassigned) [Example 4-315]",3 to 10 µM
3,"O=C1CC[C@H](CC(c2ccc(C3CC3)cc2)c2ccc(Cl)c(=O)[nH]2)N1 (single isomer, unassigned) [Example 4-316]",3 to 10 µM
4,"O=C1CC[C@H](CC(c2ccc(C3CC3)cc2)c2ccc(Cl)c(=O)[nH]2)N1 (single isomer, unassigned) [Example 4-317]",0.5 to 3 µM
5,"Cc1ccc(C(C[C@H]2CCC(=O)N2)c2ccc(Cl)c(=O)[nH]2)cc1 (single isomer, unassigned) [Example 4-318]",3 to 10 µM
6,"CC(C)c1ccc(C(C[C@H]2CCC(=O)N2)c2ccc(C3CC3)c(=O)[nH]2)cc1Cl (single isomer, unassigned) [Example 4-320]",0.01 to 0.5 µM
7,"CC(C)c1ccc(C(C[C@H]2CCC(=O)N2)c2ccc(C3CC3)c(=O)[nH]2)cc1Cl (single isomer, unassigned) [Example 4-321]",0.5 to 3 µM
8,"CC(C)Oc1ccc(C(C[C@H]2CCC(=O)N2)c2ccc(C3CC3)c(=O)[nH]2)cc1Cl (single isomer, unassigned) [Example 4-322]",0.01 to 0.5 µM
9,"CC(C)Oc1ccc(C(C[C@H]2CCC(=O)N2)c2ccc(C3CC3)c(=O)[nH]2)cc1Cl (single isomer, unassigned) [Example 4-323]",3 to 10 µM
10,"CCc1ccc(C(C[C@H]2CCC(=O)N2)c2ccc(Cl)c(=O)[nH]2)cc1Cl (single isomer, unassigned) [Example 4-324]",0.5 to 3 µM
11,"CCc1ccc(C(C[C@H]2CCC(=O)N2)c2ccc(Cl)c(=O)[nH]2)cc1Cl (single isomer, unassigned) [Example 4-325]",3 to 10 µM
12,"COc1ccc(C(C[C@H]2CCC(=O)N2)c2ccc(C3CC3)c(=O)[nH]2)cc1Cl (single isomer, unassigned) [Example 4-326]",0.01 to 0.5 µM
13,"COc1ccc(C(C[C@H]2CCC(=O)N2)c2ccc(C3CC3)c(=O)[nH]2)cc1Cl (single isomer, unassigned) [Example 4-327]",3 to 10 µM
14,"CCOc1ccc(C(C[C@H]2CCC(=O)N2)c2ccc(C3CC3)c(=O)[nH]2)cc1 (single isomer, unassigned) [Example 4-328]",0.5 to 3 µM
15,"Cc1cc(C(C[C@H]2CCC(=O)N2)c2ccc(C3CC3)c(=O)[nH]2)ccc1C(F)(F)F (single isomer, unassigned) [Example 4-330]",0.5 to 3 µM
16,"Cc1cc(C(C[C@H]2CCC(=O)N2)c2ccc(C3CC3)c(=O)[nH]2)ccc1C(F)(F)F (single isomer, unassigned) [Example 4-331]",3 to 10 µM
17,"O=C1CC[C@H](CC(c2ccc(C3CC3)c(=O)[nH]2)c2ccc(C(F)(F)F)cc2F)N1 (single isomer, unassigned) [Example 4-332]",0.5 to 3 µM
18,"O=C1CC[C@H](CC(c2ccc(C3CC3)c(=O)[nH]2)c2ccc(C(F)(F)F)cc2F)N1 (single isomer, unassigned) [Example 4-333]",3 to 10 µM
19,"O=C1CC[C@H](CC(c2ccc(C3CC3)c(=O)[nH]2)c2ccc(Cl)cc2F)N1 (single isomer, unassigned) [Example 4-334]",0.5 to 3 µM
20,"O=C1CC[C@H](CC(c2ccc(C3CC3)c(=O)[nH]2)c2ccc(Cl)cc2F)N1 (single isomer, unassigned) [Example 4-335]",3 to 10 µM
21,"CSc1ccc(/C(=C\C2CCCC2)c2ccc(Cl)c(=O)[nH]2)cc1 [Example 1-1, 3-Chloro-6-{(E)-2-Cyclopentyl-1-[4-(methylsulfanyl)phenyl]ethenyl}pyridin-2(1H)-one]",0.5 to 3 µM

# Now from value to compound:
row,EC50,SMILES
1,0.01 to 0.5 µM,"CCc1ccc(C(C[C@H]2CCC(=O)N2)c2ccc(C3CC3)c(=O)[nH]2)cc1Cl (single isomer, unassigned) [Example 4-336]"
2,0.5 to 3 µM,"CCc1ccc(C(C[C@H]2CCC(=O)N2)c2ccc(C3CC3)c(=O)[nH]2)cc1Cl (single isomer, unassigned) [Example 4-337]"
3,0.5 to 3 µM,"COCCCc1ccc(C(C[C@H]2CCC(=O)N2)c2ccc(Cl)c(=O)[nH]2)cc1 (single isomer, unassigned) [Example 4-338]"
4,0.5 to 3 µM,"O=C1CCC(CC(c2ccc(C(F)F)cc2)c2ccc(C3CC3)c(=O)[nH]2)N1 (single isomer, unassigned) [Example 4-340, 3-Cyclopropyl-6-[1-[4-(difluoromethyl)phenyl]-2-(5-oxopyrrolidin-2-yl)ethyl]pyridin-2(1H)-one]"
5,3 to 10 µM,"O=C1CCC(CC(c2ccc(C(F)F)cc2)c2ccc(C3CC3)c(=O)[nH]2)N1 (single isomer, unassigned) [Example 4-341, 3-Cyclopropyl-6-[1-[4-(difluoromethyl)phenyl]-2-(5-oxopyrrolidin-2-yl)ethyl]pyridin-2(1H)-one]"
6,0.01 to 0.5 µM,"O=C1CC[C@H](CC(c2ccc(S(=O)(=O)C3CC3)c(Cl)c2)c2ccc(C3CC3)c(=O)[nH]2)N1 (single isomer, unassigned) [Example 4-342]"
7,3 to 10 µM,"O=C1CC[C@H](CC(c2ccc(S(=O)(=O)C3CC3)c(Cl)c2)c2ccc(C3CC3)c(=O)[nH]2)N1 (single isomer, unassigned) [Example 4-343]"
8,0.01 to 0.5 µM,"O=C1CC[C@H](CC(c2ccc(OC3CC3)c(Cl)c2)c2ccc(C3CC3)c(=O)[nH]2)N1 (single isomer, unassigned) [Example 4-344]"
9,3 to 10 µM,"O=C1CC[C@H](CC(c2ccc(OC3CC3)c(Cl)c2)c2ccc(C3CC3)c(=O)[nH]2)N1 (single isomer, unassigned) [Example 4-345]"
10,0.01 to 0.5 µM,"COc1cc(F)c(C(C[C@H]2CCC(=O)N2)c2ccc(C3CC3)c(=O)[nH]2)cc1Cl (single isomer, unassigned) [Example 4-346]"
11,3 to 10 µM,"COc1cc(F)c(C(C[C@H]2CCC(=O)N2)c2ccc(C3CC3)c(=O)[nH]2)cc1Cl (single isomer, unassigned) [Example 4-347]"
12,0.5 to 3 µM,"CC(C)Oc1ccc(C(C[C@H]2CCC(=O)N2)c2ccc(C3CC3)c(=O)[nH]2)cc1 (single isomer, unassigned) [Example 4-348]"
13,0.01 to 0.5 µM,"CC(C)Oc1ccc(C(C[C@H]2CCC(=O)N2)c2ccc(C3CC3)c(=O)[nH]2)cc1F (single isomer, unassigned) [Example 4-350]"
14,0.5 to 3 µM,"CCCOc1ccc(C(C[C@H]2CCC(=O)N2)c2ccc(C3CC3)c(=O)[nH]2)cc1 (single isomer, unassigned) [Example 4-352]"
15,0.5 to 3 µM,"CCOc1ccc(C(C[C@H]2CCC(=O)N2)c2ccc(C3CC3)c(=O)[nH]2)cc1F (single isomer, unassigned) [Example 4-354]"
16,0.01 to 0.5 µM,"O=C1CC[C@H](CC(c2ccc(OC(F)F)c(Cl)c2)c2ccc(C3CC3)c(=O)[nH]2)N1 (single isomer, unassigned) [Example 4-356]"
17,3 to 10 µM,"O=C1CC[C@H](CC(c2ccc(OC(F)F)c(Cl)c2)c2ccc(C3CC3)c(=O)[nH]2)N1 (single isomer, unassigned) [Example 4-357]"
18,0.5 to 3 µM,"CC(C)(C)c1ccc(C(CCN2CCOC2=O)c2ccc(Cl)c(=O)[nH]2)cc1 (single isomer, unassigned) [Example 6-29, 6-[1-(4-tert-Butylphenyl)-3-(2-oxo-1,3-oxazolidin-3-yl)propyl]-3-chloropyridin-2(1H)-one]"
